Assay results reported in US9012403B2, “Peptides as active agents to stabilize biological barriers” (XiberScience GmbH, priority 2010, dated 2015).
Marks after values point to notes of the source that are not given here.

Assays:
LPS induced lung injury = experiment: LPS induced lung injury, bronchoalveolar lavage; format: in vivo; conditions: mice, n = 20
Description: Male C57Bl/6 Mice (Charles River, Germany) were kept at the animal facility of the Medical University of Vienna, feed with standard diet and water was provided ad libitum. All interventions were performed according to the guide lines of AAALAC (Association for Assessment and Accreditation of Laboratory Animal Care). All experiment were approved by the Ethic committee of the Medical University of Vienna. Mice were anesthetized with isoflouran and treated with 100 ng of LPS (E. coli O55:B5, Sigma Aldrich) intranasally. XIB1-a or XIB1-b was applied either intra-peritoneally (2×2 mg/kg) or via inhalation (2×4 mg/kg), first application was performed concomitantly with LPS administration, the second application was performed 1 h after the LPS inhalation.
The trachea was exposed through a midline incision and canulated with a sterile 20-gauge catheter (BD Venflon™, Becton Dickinson Infusion Therapy, Helsingborg, Sweden). Bilateral broncho-alveolar lavage fluid (BALF) was gained by instilling two 0.5 ml aliquots of sterile saline. Approximately 0.9-1 ml BALF was retrieved per mouse. Total cell numbers were counted from each sample using a hemo-cytometer (Türck chamber), BALF differential cell counts were done on cytospin preparations stained with Giemsa. For protein measurements, BALF was diluted 1:2 in buffer containing 300 mM NaCl, 30 mM Tris, 2 mM MgCl2, 2 mM CaCl2, and Pepstatin A, Leupeptin and Aprotinin (all 20 ng/ml; pH 7.4). Protein levels in BALF were measured using the BCA protein kit according to the manufacturer's instructions (Pierce, Rockford, Ill.).
In addition, the same set-up as described above was used for comparing the impact of XIB1-b compared to Bβ15-42 (PLoS ONE (2009), 4(4): e5391), a peptide derived from fibrin having the sequence […] (SEQ ID NO: 41). Bβ15-42 was added in the same manner as XIB1-b. Again, protein content and cell count of BALF was measured.

GTP-bound RhoA [1] = experiment: GTP-associated active RhoA in HpMec membrane fraction (western blot); format: cell-based; conditions: HpMec, no stimulus, peptide 50 μg/ml
Description: (§1) To measure the GTP-associated active RhoA, the following cell lines were used: Caco-2, ECV304 and HpMec. All cells were grown at standard conditions (37° C., 5% CO2 and 95% rH). 4 h before the experiment, cells were starved by serum withdrawal. To induce GEF-activity, cells were stimulated with thrombin, LPS or PMA for the indicated time in presence or absence of 50 μg/ml XIB1-a or XIB1-b. After stimulation, membrane fractions were prepared by using the commercial available “Compartemental Protein Extraction Kit” from Biochain Institutes. Membrane fractions were prepared according to the manufacturer instructions. The membrane fraction was separated on 15% polyacrylamide gel according to standard procedures of gel electrophoresis. The gels were afterwards blotted on a nitrocellulose membrane according to standard procedures of western blotting. GTP-bound RhoA was detected using RhoA-GTP monoclonal antibody from NewEast Inc. in a dilution of 1:5000. Protein bands were analyzed with the Dolphin-1D Gel analysis system (Wealtec).

GTP-bound RhoA [2] = experiment: GTP-associated active RhoA in Caco-2 membrane fraction (western blot); format: cell-based; conditions: CaCo-2, no stimulus, peptide 50 μg/ml
Description: as §1

GEF [3] = experiment: GEF-activity in membrane fractions of ECV304 cells (RhoGEF Exchange Assay); format: cell-based; conditions: ECV 304, no stimulus, peptide 50 μg/ml
Description: (§2) To measure the GEF-inhibitory effect, the following cell lines were used: Caco-2 (epithelial cells from adeno-carcinoma), ECV304 (epithelial cells from bladder carcinoma) and HpMec (endothelial cells, immortalized pulmonary micro-vascular cells). All cells were grown at standard conditions (37° C., 5% CO2 and 95% relative humidity (rH)). Culture Medium used for Caco-2: DMEM+1 mM sodium pyruvate+20% FCS+1% Penicillin Streptomycin; for ECV 304: RPMI 1640+10% FCS+1% Penicillin Streptomycin; and for HpMec: IMDM+25 mM Hepes+10% Human Serum+1% Penicillin Streptomycin+1% L-Glutamine+ECGS/Heparin 2 ml. 4 h before the experiment, cells were starved by serum withdrawal. To induce GEF-activity, cells were stimulated with thrombin, lipopolysaccharide (LPS) or PMA for the indicated time in presence or absence of 50 μg/ml XIB1-a or XIB1-b. After stimulation, membrane fractions were prepared by using the commercial available “Compartemental Protein Extraction Kit” from Biochain institutes. Membrane fractions were prepared according to the manufacturer instructions. GEF-activity in membrane lysates was determined by using “RhoGEF Exchange Assay Biochem Kit” from Cytoskeleton Inc. according to manufacturer instructions. GEF-activity was measured as fluorescence at using the Fluoroskan Ascent FL 2.6 from Thermo Electron Corporation. The excitation Filter wavelength was set at 355 nm and the emission filter wavelength at 460 nm.

GEF [4] = experiment: GEF-activity in membrane fractions of HpMec cells (RhoGEF Exchange Assay); format: cell-based; conditions: HpMec, no stimulus, peptide 50 μg/ml
Description: as §2

GEF [5] = experiment: GEF-activity in membrane fractions of Caco-2 cells (RhoGEF Exchange Assay); format: cell-based; conditions: CaCo-2, no stimulus, peptide 50 μg/ml
Description: as §2

[6] = system: Phosphorylated Myosin Light Chain (MLC) and actin stress fibers; experiment: MLC phosphorylation and actin stress fiber formation in Caco-2 cells (microscopy score); format: cell-based; conditions: CaCo-2, no stimulus, peptide 50 μg/ml
Description: (§3) To measure MLC phosphorylation and actin stress fiber formation, the following cell lines were used: Caco-2, ECV304 and HpMec. All cells were grown at standard conditions (37° C., 5% CO2 and 95% rH). Culture Medium used: for Caco-2: DMEM+1 mM sodium pyruvate+20% FCS+1% Penicillin Streptomycin; for ECV 304: RPMI 1640+10% FCS+1% Penicillin Streptomycin; and for HpMec: IMDM+25 mM Hepes+10% Human Serum+1% Penicillin Streptomycin+1% L-Glutamine+ECGS/Heparin 2 ml. 4 h before the experiment, cells were starved by serum withdrawal. To induce GEF-activity, cells were stimulated with thrombin, LPS or PMA for the indicated time in presence or absence of 50 μg/ml XIB1-a or XIB1-b. After stimulation, cells were fixed using 4% PFA. Phospho MLC was detected by using the “rabbit anti phosphor-myosin light chain antibody” from Chemicon in a concentration of 3 μl/ml in PBS (Gibco) supplemented with 0.1% Triton X-100. As detection antibody, the Alexa 448 tagged “anti Rabbit IgG Antibody” from Invitrogen was used in a concentration of 0.5 μl/ml in PBS (Gibco) supplemented with 0.1% Triton X-100. Aktin was detected using TRITC-labeled Phalloidin in a concentration of 0.5 μl/ml in PBS (Gibco) supplemented with 0.1% Triton. Stained cells were analyzed by using a Zeiss Laser Scan microscope. Evaluation of the cyto-skeletal activation was performed by 2 independent observers that were blinded to the conditions. Evaluation criteria were set as follows:
(§4) Actin: parallel actin bundles absent=0; distinct bundle formation=1; prominent parallel bundles=2; Phospho-MLC: present at cell poles=0; slight co-localization with actin bundles=1; prominent co-localization with actin bundles=2

[7] = system: Phosphorylated Myosin Light Chain (MLC) and actin stress fibers; experiment: MLC phosphorylation and actin stress fiber formation in HpMec cells (microscopy score); format: cell-based; conditions: no stimulus, peptide 50 μg/ml
Description: as §3, §4

[8] = system: Phosphorylated Myosin Light Chain (MLC) and actin stress fibers; experiment: MLC phosphorylation and actin stress fiber formation in ECV304 cells (microscopy score); format: cell-based; conditions: ECV 304, no stimulus, peptide 50 μg/ml
Description: as §3, §4

GTP-bound RhoA [9] = experiment: GTP-associated active RhoA in ECV304 membrane fraction (western blot); format: cell-based; conditions: ECV 304, no stimulus, peptide 50 μg/ml
Description: as §1

[10] = 6 h after LPS administration, intratracheal application

Sequence: GGGGGLSRRIP (/note=“Description of artificial sequence variable insert”) [Control Peptide, random peptide used for control purposes, reference compound]
- counts of neutrophils in the BALF (mean +/ SD) (LPS induced lung injury; comparison with Bβ15-42 (Table 6), 6 h after LPS, intraperitoneal application): 91 +/− 33 neutrophils/ml (× 10^3)
- counts of neutrophils in the BALF (mean +/ SD) (LPS induced lung injury; comparison with Bβ15-42 (Table 6), 6 h after LPS, intratracheal plus intraperitoneal application): 94 +/− 30 neutrophils/ml (× 10^3)
- albumine content of BALFs (mean +/ SD) (LPS induced lung injury; comparison with Bβ15-42 (Table 6, last section), 6 h after LPS, intraperitoneal application as printed): 250 ± 25 µg/mL
- counts of neutrophils in the BALF (mean +/ SD) (LPS induced lung injury; 6 h after LPS administration, intraperitoneal application (2×2 mg/kg)): 88 +/− 33 neutrophils/ml (× 10^3)
- albumine content of BALFs (mean +/ SD) (LPS induced lung injury; [10]): 237 ± 32 µg/mL
- counts of neutrophils in the BALF (mean +/ SD) (LPS induced lung injury; [10]): 90 +/− 30 neutrophils/ml (× 10^3)
- GTP-bound RhoA, relative values compared to unstimulated control (Mean) (GTP-bound RhoA [1]; 1 min): 1
- GTP-bound RhoA, relative values compared to unstimulated control (Mean) (GTP-bound RhoA [1]; 5 min): 1
- GTP-bound RhoA, relative values compared to unstimulated control (Mean) (GTP-bound RhoA [2]; 1 min): 1
- GTP-bound RhoA, relative values compared to unstimulated control (Mean) (GTP-bound RhoA [2]; 5 min): 1
- GEF-activity, relative values compared to unstimulated control (Mean) (GEF [3]; 1 min): 1
- GEF-activity, relative values compared to unstimulated control (Mean) (GEF [3]; 5 min): 1
- GEF-activity, relative values compared to unstimulated control (Mean) (GEF [4]; 1 min): 1
- GEF-activity, relative values compared to unstimulated control (Mean) (GEF [4]; 5 min): 1
- GEF-activity, relative values compared to unstimulated control (Mean) (GEF [5]; 1 min): 1
- GEF-activity, relative values compared to unstimulated control (Mean) (GEF [5]; 5 min): 1
- MLC phosphorylation and actin stress fiber formation, evaluation score (Mean) ([6]; 1 min): 0
- MLC phosphorylation and actin stress fiber formation, evaluation score (Mean) ([6]; 5 min): 0
- MLC phosphorylation and actin stress fiber formation, evaluation score (Mean) ([7]; 1 min): 0
- MLC phosphorylation and actin stress fiber formation, evaluation score (Mean) ([7]; 5 min): 0
- MLC phosphorylation and actin stress fiber formation, evaluation score (Mean) ([8]; 1 min): 0
- MLC phosphorylation and actin stress fiber formation, evaluation score (Mean) ([8]; 5 min): 0
- GTP-bound RhoA, relative values compared to unstimulated control (Mean) (GTP-bound RhoA [9]; 1 min): 1
- GTP-bound RhoA, relative values compared to unstimulated control (Mean) (GTP-bound RhoA [9]; 5 min): 1
